# Source: ChEMBL document CHEMBL1201862, “PubChem BioAssay data set” (2004)
# “And” between values parts separate entries of the source, which are not always exact repeats. Identical values can stand only once. The source made the active and inactive calls.
# How the values were obtained:
# [1] = biological target: T1, Estrogen receptor beta (Homo sapiens, UniProt Q92731); assay: ERβ–SRC-3 coactivator interaction inhibitors, confirmation, orthogonal assay, biochemical, ELISA, streptavidin-HRP readout (AID 1060)
# [2] = biological target: T2, Bcl-2-related protein A1 (Mus musculus, UniProt Q07440); assay: Bfl-1 inhibitors blocking BH3 peptide binding, confirmation, biochemical, TR-FRET, mouse Bfl-1 (AID 621);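 also: TR-FRET binding of GST-Bfl-1 to FITC-labelled Bid peptide via terbium antibody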
# T2 sequence (Q07440 whole entry): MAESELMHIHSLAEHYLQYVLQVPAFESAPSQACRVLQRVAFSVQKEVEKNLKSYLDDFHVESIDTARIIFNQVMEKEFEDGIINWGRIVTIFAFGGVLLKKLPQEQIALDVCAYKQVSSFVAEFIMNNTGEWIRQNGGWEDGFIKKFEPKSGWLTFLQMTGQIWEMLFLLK
# [3] = biological target: T1, Estrogen receptor beta
# [4] = biological target: T2, Bcl-2-related protein A1; assay: Bfl-1 inhibitors, primary screen, biochemical, fluorescence polarization, FITC-Bid, mouse (AID 432)
# [5] = biological target: T3, Estrogen receptor (Homo sapiens, UniProt P03372);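 also: potency for inhibiting coactivator peptide recruitment to the receptor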
# T3 sequence (P03372 whole entry): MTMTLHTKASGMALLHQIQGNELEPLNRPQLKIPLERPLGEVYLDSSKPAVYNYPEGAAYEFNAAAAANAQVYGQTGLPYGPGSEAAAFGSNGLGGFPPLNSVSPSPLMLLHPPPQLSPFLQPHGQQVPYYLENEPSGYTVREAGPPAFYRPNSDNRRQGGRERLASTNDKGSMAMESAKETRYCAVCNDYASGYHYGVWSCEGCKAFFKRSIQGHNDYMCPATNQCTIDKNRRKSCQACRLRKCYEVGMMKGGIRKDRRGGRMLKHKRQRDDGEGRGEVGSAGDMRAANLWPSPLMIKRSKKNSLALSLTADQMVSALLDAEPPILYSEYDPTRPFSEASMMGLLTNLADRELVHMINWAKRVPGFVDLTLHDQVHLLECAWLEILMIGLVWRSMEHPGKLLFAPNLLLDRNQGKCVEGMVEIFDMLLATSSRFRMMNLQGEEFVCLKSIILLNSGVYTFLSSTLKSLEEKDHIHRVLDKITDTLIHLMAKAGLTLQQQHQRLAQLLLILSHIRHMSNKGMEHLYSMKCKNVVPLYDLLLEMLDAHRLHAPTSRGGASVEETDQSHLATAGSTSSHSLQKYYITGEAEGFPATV
# [6] = biological target: T2, Bcl-2-related protein A1; assay: Bfl-1 binding inhibitors, SAR follow-up, biochemical, fluorescence polarization (AID 1070)
# [7] = biological target: Glyceraldehyde-3-phosphate dehydrogenase (Homo sapiens, UniProt P04406)
# [8] = system: Vero; assay: host cell cytotoxicity of antiviral hits, dose response, cytotoxicity control for West Nile virus antiviral project, secondary assay (AID 1650); format: functional; details: Chlorocebus sabaeus
# [9] = biological target: Heat shock protein HSP 90-alpha (Homo sapiens, UniProt P07900); assay: Luminescence-based dose response biochemical high throughput screening assay for inhibitors of the Heat Shock Protein 90 (HSP90). [Related pubchem assays: 1831 (Summary AID.), 1846 (Confirmation screen.), 1789 (Primary screen.)]
# [10] = biological target: T4, Insulin-degrading enzyme (Homo sapiens, UniProt P14735); assay: Dose Response: Fluorescence polarization-based cell-based high throughput dose response assay for inhibitors of insulin-degrading enzyme (IDE). [Related pubchem assays: 434962 (Primary screen (IDE inhibitors in singlicate)), 449730 (Counterscreen (Cytotoxicity in triplicate)), 435028 (Confirmation (IDE inhibitors in triplicate)), 434984 (Summary …; format: functional
# T4 sequence (P14735 whole entry): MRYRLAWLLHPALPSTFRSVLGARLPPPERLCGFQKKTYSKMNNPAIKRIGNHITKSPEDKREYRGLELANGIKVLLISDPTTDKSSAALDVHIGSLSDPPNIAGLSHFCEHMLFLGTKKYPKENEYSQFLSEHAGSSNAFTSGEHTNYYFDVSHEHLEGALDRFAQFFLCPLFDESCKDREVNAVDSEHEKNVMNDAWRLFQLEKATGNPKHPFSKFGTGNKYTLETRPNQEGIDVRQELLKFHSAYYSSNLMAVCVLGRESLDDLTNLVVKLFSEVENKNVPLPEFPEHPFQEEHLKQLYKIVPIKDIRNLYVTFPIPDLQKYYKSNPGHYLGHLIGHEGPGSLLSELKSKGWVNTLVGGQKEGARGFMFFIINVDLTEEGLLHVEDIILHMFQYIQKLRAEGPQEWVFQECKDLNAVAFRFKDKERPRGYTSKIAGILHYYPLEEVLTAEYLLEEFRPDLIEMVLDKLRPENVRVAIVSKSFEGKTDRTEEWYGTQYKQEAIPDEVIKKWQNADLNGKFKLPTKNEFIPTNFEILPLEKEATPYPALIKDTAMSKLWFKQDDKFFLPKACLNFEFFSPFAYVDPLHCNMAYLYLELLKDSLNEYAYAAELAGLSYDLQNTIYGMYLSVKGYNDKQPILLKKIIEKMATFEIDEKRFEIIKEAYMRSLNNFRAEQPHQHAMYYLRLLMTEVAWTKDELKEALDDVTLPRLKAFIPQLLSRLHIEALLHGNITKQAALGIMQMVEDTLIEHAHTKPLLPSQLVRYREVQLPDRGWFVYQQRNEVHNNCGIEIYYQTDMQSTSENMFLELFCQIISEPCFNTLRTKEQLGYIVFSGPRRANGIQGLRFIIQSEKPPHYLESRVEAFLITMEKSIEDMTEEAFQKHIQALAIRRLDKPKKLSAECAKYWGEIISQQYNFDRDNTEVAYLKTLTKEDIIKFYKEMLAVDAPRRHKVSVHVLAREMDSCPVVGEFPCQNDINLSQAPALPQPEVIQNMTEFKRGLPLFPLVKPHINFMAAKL
# [11] = Counterscreen for IDE inhibitors: Luminescence-based cell-based high throughput dose response assay to identify compounds that are cytotoxic to HEK cells. [Related pubchem assays: 434962 (Primary screen (IDE inhibitors in singlicate)), 449730 (Counterscreen (Cytotoxicity in triplicate)), 435028 (Confirmation (IDE inhibitors in triplicate)) …; format: functional; details: HEK293
# [12] = system: HeLa; assay: Cytotoxicity counterscreen assay for transcriptional activators of heat shock protein 70 (Hsp70). [Related pubchem assays: 1203, 1252 ]; format: functional; details: Homo sapiens;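 also: cells exposed to compound for 16 hours before readout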
# [13] = biological target: Ubiquitin carboxyl-terminal hydrolase BAP1 (Homo sapiens, UniProt Q92560); assay: BAP1 deubiquitinase inhibitors, dose response, biochemical (AID 714); format: functional
# [14] = M. tuberculosis H37Rv growth inhibitors, H37Rv strain (AID 1626); format: functional
# [15] = biological target: T5, Mucolipin-3 (Homo sapiens, UniProt Q8TDD5); assay: Dose response cell-based high-throughput screening assay for agonists of the transient receptor potential channel ML3 (TRPML3). [Related pubchem assays: 1526, 1424, 1448 ]; format: functional
# T5 sequence (Q8TDD5 whole entry): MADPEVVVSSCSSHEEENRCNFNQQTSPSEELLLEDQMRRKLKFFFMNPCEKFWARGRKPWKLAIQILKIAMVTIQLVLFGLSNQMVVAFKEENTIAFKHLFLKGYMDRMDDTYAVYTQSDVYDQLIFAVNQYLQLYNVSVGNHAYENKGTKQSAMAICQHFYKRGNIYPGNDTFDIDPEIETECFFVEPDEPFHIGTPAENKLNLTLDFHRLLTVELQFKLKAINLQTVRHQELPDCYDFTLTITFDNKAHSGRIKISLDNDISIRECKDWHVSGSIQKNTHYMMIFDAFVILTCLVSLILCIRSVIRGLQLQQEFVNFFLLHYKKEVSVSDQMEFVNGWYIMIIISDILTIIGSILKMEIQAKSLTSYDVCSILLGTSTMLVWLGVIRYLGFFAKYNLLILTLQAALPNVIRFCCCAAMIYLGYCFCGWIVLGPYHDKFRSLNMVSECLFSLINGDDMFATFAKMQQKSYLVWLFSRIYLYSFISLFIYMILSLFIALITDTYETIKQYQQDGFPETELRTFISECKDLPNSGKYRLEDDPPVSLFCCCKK
# [16] = biological target: Ion channel NompC (Danio rerio, UniProt Q7T1G6); assay: Fluorescence counterscreen assay for TRPML3 agonists: dose response cell-based high-throughput screening assay to identify agonists of the transient receptor potential channel N1 (TRPN1). [Related pubchem assays: 1526, 1424, 1448 ]; format: functional
# [17] = biological target: Mitogen-activated protein kinase 10 (Homo sapiens, UniProt P53779); assay: Dose response biochemical screening assay for inhibitors of c-Jun N-Terminal Kinase 3 (JNK3). [Related pubchem assays: 746 ]
# [18] = biological target: Peroxisome proliferator-activated receptor gamma/Nuclear receptor coactivator 2 (Homo sapiens, UniProt P37231); assay: TR-FRET dose response biochemical High Throughput Screening assay for agonists of the steroid receptor coactivator 2 (SRC-2) recruitment by the peroxisome proliferator-activated receptor gamma (PPAR gamma): non-selective agonists. [Related pubchem assays: 1297, 1032 ]; format: functional
# [19] = biological target: Peroxisome proliferator-activated receptor gamma/Nuclear receptor coactivator 3 (Homo sapiens, UniProt P37231); assay: TR-FRET dose response biochemical High Throughput Screening assay for agonists of the steroid receptor coactivator 3 (SRC-3) recruitment by the peroxisome proliferator-activated receptor gamma (PPAR gamma): non-selective agonists. [Related pubchem assays: 1301 (Confirmation screen.), 1048 (Primary screen.)]; format: functional
# [20] = biological target: Peroxisome proliferator-activated receptor gamma/Nuclear receptor coactivator 1 (Homo sapiens, UniProt P37231); assay: TR-FRET dose response biochemical High Throughput Screening assay for agonists of the steroid receptor coactivator 1 (SRC-1) recruitment by the peroxisome proliferator-activated receptor gamma (PPAR gamma): non-selective agonists. [Related pubchem assays (depositor defined):AID1300, AID1808, AID504735, AID631]; format: protein assay
# [21] = biological target: T6, Small ubiquitin-related modifier 1 (Homo sapiens, UniProt P63165); assay: inhibitors of SUMO1 partner interactions, dose response, biochemical, FRET (AID 624383); format: functional; details: read-out: IC50_Mean
# [22] = biological target: T6, Small ubiquitin-related modifier 1; assay: inhibitors of SUMO1 peptide binding, dose response, biochemical, fluorescence polarization, uHTS hits (AID 624382); format: functional; details: read-out: IC50_Mean
# [23] = biological target: COUP transcription factor 2 (Homo sapiens, UniProt P24468); assay: Luminescence-based cell-based high throughput dose response assay to identify inhibitors of COUP-TFII (NR2F2).; format: functional;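 also: HEK293 cells transiently cotransfected with COUP-TFII expression vector and reporter; luciferase reporter luminescence driven by COUP-TFII from the pX2-168 reporter plasmid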
# [24] = control 3'UTR Renilla luciferase suppression, dose response, counter-screen for Shn3 inhibitor project, cell-based, Clone20-Shn3RL, cherry-picked (AID 624133); format: functional
# [25] = HepG2 cell cytotoxicity, dose response, cytotoxicity control for Shn3 inhibitor project, CellTiter-Glo, cherry-picked (AID 624134); format: functional, cell-based
# [26] = biological target: Protein Wnt-3a (Mus musculus, UniProt P27467); assay: Wnt3a-driven reporter signaling inhibition, dose response, selectivity assay for Gli-SUFU antagonist project, Wnt-LIGHT cells, luminescence (AID 651570); format: functional; details: read-out: IC50_Mean;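 also: Wnt-LIGHT reporter cells stimulated with conditioned medium from Wnt3a-producing cells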
# [27] = biological target: RNA-editing ligase 1, mitochondrial (Trypanosoma brucei brucei, UniProt P86926); assay: TbREL1 ligase inhibitors, dose response, biochemical, fluorescence, Trypanosoma brucei (AID 1117295); format: functional
# Chain of RNA-editing ligase 1, mitochondrial (P86926 whole entry): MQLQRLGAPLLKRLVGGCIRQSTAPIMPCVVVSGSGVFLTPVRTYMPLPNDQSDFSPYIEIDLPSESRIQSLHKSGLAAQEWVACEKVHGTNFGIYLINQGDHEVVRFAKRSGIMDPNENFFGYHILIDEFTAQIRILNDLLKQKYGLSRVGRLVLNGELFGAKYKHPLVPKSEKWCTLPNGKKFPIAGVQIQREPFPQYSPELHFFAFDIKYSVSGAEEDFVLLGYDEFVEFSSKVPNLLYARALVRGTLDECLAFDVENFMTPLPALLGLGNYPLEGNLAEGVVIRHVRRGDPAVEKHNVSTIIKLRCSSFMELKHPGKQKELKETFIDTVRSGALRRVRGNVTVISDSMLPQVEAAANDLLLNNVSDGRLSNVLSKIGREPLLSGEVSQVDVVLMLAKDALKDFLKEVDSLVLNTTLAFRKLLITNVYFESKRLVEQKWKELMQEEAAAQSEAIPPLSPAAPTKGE
# T6 sequence (P63165 whole entry): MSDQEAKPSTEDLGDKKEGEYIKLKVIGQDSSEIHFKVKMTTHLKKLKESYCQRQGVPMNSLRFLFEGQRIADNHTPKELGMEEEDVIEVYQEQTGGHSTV
# Chain of Ion channel NompC (Q7T1G6 whole entry): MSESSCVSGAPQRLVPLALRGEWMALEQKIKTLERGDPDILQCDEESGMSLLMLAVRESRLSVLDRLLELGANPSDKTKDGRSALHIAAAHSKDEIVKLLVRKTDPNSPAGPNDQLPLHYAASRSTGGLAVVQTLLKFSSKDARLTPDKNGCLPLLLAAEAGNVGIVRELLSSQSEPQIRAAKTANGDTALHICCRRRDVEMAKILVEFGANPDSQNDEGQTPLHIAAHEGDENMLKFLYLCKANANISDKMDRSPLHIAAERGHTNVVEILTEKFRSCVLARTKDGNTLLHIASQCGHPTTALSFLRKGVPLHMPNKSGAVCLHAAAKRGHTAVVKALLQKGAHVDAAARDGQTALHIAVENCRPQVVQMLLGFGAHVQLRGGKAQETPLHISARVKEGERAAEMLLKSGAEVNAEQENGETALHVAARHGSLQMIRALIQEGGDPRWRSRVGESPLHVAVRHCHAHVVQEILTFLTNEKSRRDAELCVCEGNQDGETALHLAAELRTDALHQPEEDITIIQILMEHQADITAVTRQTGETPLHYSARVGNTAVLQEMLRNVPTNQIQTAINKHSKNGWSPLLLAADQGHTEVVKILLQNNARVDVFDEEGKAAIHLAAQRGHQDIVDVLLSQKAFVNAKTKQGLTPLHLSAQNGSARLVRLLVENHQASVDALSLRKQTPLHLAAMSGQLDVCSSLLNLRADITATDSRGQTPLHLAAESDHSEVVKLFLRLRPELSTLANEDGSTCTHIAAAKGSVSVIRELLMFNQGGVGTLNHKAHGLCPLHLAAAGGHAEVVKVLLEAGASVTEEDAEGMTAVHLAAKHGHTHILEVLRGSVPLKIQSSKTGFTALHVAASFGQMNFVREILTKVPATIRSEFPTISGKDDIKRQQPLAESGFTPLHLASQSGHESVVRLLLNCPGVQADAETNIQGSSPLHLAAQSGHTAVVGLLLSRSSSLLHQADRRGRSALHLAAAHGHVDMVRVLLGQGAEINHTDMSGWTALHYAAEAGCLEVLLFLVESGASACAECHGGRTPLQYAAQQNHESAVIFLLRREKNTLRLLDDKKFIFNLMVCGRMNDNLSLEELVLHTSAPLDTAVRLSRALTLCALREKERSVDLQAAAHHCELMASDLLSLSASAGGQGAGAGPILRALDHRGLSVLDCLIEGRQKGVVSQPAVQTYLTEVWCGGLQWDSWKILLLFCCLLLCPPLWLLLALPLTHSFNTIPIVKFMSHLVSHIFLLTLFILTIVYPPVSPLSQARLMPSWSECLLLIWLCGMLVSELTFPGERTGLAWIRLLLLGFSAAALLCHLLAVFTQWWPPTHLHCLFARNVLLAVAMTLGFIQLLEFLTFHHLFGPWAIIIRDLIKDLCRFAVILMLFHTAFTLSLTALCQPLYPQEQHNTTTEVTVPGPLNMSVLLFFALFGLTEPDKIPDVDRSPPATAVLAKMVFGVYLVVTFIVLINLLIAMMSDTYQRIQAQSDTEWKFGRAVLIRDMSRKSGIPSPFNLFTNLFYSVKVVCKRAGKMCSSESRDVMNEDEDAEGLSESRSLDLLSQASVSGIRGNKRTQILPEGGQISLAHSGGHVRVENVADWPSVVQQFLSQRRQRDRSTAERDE
# Chain of Ubiquitin carboxyl-terminal hydrolase BAP1 (Q92560 whole entry): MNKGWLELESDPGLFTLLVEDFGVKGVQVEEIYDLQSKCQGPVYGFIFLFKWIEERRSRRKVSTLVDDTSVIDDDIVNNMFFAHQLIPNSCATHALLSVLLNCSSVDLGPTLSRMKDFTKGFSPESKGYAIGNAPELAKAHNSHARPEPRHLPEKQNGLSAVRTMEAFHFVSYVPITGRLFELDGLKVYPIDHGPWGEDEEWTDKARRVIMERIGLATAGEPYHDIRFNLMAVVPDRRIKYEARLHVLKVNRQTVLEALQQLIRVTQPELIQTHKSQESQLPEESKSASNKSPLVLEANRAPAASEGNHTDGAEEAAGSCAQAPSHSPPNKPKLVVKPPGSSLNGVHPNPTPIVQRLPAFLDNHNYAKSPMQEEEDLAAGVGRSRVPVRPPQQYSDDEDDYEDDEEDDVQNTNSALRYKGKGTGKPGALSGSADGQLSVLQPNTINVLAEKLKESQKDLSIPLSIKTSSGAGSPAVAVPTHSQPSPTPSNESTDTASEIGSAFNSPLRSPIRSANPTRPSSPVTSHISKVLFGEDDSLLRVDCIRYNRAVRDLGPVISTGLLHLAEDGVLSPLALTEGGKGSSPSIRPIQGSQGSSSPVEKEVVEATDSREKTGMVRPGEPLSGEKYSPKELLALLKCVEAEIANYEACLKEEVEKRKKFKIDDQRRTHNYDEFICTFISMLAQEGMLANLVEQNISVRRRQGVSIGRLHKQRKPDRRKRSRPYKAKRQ
# Chain of Mitogen-activated protein kinase 10 (P53779 whole entry): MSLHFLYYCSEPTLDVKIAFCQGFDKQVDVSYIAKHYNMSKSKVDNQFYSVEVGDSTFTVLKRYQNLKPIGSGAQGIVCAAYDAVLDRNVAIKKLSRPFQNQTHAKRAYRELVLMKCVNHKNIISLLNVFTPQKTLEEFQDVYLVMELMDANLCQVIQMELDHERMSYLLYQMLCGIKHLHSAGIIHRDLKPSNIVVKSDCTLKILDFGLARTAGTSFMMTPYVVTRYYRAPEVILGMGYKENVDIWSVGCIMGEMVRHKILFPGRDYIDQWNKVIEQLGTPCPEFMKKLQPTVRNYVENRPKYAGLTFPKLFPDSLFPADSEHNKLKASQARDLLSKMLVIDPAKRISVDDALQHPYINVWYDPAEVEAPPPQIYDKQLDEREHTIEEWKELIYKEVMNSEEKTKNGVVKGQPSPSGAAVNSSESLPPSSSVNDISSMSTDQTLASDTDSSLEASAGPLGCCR
# T1 sequence (Q92731 whole entry): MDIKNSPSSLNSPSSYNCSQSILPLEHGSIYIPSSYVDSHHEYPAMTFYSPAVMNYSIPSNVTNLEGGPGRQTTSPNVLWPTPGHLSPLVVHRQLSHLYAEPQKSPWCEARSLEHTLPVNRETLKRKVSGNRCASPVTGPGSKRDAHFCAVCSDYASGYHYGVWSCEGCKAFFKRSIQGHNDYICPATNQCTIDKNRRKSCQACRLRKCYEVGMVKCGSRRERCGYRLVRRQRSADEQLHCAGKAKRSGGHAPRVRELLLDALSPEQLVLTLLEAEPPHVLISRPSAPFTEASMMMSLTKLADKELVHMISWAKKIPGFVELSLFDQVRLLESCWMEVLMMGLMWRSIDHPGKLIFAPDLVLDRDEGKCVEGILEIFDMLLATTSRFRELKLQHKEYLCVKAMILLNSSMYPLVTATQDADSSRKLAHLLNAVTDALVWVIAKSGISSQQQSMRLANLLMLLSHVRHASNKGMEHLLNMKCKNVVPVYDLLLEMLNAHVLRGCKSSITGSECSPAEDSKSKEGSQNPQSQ
# Chain of Glyceraldehyde-3-phosphate dehydrogenase (P04406 whole entry): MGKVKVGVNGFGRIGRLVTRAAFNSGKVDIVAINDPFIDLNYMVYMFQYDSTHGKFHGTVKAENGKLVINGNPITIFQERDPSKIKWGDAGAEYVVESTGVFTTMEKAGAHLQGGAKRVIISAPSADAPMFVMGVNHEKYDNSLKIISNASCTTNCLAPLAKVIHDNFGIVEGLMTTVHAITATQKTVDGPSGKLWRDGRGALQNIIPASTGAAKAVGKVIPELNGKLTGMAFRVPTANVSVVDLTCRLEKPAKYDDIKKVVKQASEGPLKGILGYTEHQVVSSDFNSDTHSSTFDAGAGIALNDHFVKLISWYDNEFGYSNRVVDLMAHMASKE
# Chain of Protein Wnt-3a (P27467 whole entry): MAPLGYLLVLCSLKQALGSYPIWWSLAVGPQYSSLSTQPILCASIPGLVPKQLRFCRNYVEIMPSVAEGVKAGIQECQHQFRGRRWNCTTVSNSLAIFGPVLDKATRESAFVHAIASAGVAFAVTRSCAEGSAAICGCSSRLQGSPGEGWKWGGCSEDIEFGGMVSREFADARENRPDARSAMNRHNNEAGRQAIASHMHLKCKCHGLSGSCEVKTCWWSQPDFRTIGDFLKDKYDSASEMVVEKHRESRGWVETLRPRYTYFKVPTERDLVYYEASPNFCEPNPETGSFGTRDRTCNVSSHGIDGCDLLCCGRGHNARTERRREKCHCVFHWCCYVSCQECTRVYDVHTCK
# Chain of COUP transcription factor 2 (P24468 whole entry): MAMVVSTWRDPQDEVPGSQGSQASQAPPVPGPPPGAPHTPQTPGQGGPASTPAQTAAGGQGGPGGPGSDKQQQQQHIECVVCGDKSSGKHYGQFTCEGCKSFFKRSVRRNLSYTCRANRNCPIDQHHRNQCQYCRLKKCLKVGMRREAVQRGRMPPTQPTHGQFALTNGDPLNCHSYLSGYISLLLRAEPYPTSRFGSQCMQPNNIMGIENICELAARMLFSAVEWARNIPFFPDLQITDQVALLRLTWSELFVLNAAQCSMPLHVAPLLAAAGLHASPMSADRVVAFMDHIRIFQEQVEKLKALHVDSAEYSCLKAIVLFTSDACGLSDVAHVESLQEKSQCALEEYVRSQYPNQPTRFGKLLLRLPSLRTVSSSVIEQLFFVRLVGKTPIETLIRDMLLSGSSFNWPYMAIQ
smiles,measurement,setting,value
O=C(Nc1cnn(C23CC4CC(CC(C4)C2)C3)c1)c1cnn2c(C(F)(F)F)cc(-c3ccco3)nc12,IC50,[1],< 0.023 µM (not active)
same,IC50,[2],1.76 µM (active) and 12.3 µM (active)
same,IC50,[3],> 50 µM (not active)
same,IC50,[4],11.2 µM (active)
same,IC50,[5],3.64 µM (active)
same,IC50,[6],1.69 µM (active)
same,IC50,[7],> 100 µM (not active)
O=C1/C(=C/c2ccco2)SC(=S)N1CCC(=O)N1CCCCC1CCO (stereo not given),CC50,[8],13.4 µM (active)
COCCn1c(C)cc(C(=O)Cn2nc(C(=O)O)c3ccccc3c2=O)c1C,IC50,[9],3.73 µM (active)
Cc1c(-c2cccc(Cl)c2)nc2ccccc2c1C(=O)OCC(=O)N(C)C1CCS(=O)(=O)C1 (stereo not given),IC50,[10],> 55.9 µM (not active)
same,IC50,[11],36.1 µM (not active)
Cc1cccc(-c2noc(CCCC(=O)N3CCOCC3)n2)c1,CC50,[12],> 99 µM (not active)
CCOC(=O)c1c(NC(=O)CSc2nnc(CNc3ccc(F)cc3)o2)sc(C)c1C,IC50,[13],29.1 µM (active)
CC(=O)C1=C(C)NC(SCC(=O)c2ccc(Cl)c(Cl)c2)=C(C#N)C1c1ccco1 (stereo not given),IC50,[13],> 50 µM (not active)
O=C(CSc1nnc(-c2ccco2)o1)c1ccccc1Cl,IC50,[14],> 100 µM (active)
Cc1ccc(S(=O)(=O)N(CC(=O)N2CCCCC2)c2cccc(C)c2)cc1,EC50,[15],1.24 µM (active)
same,EC50,[16],> 29.9 µM (not active)
CCOC(=O)CC(=O)CSc1ncnc2c1oc1ccccc12,IC50,[17],> 31 µM (not active)
same,EC50,[18],> 26.5 µM (not active)
same,EC50,[19],> 79.4 µM (not active)
same,EC50,[20],> 79.4 µM (inactive)
CC1=CC(C)(C)N(C(=O)CSc2nnc(-c3ccccc3)o2)c2ccc(C)cc21,EC50,[15],4.18 µM (active)
same,EC50,[16],> 29.9 µM (not active)
O=C(CSc1ncccc1-c1nc2ccccc2[nH]1)N1CCN(c2ccccc2F)CC1,IC50,[17],55.9 µM (not active)
O=C(O)c1cccc(NC(=S)NC(NC(=O)c2cccc([N+](=O)[O-])c2)C(Cl)(Cl)Cl)c1 (stereo not given),IC50,[9],9.85 µM (active)
same,IC50,[21],10.8 µM (active)
same,IC50,[22],> 66.6 µM (inactive)
COCCn1cnc2cc(C)c(C)cc21,IC50,[2],> 100 µM (not active)
same,IC50,[4],> 100 µM (not active)
CC[C@@H](O)C[C@H]1CCC[C@@]2(C[C@@H]3OC(=O)/C=C/[C@@](C)(O)[C@@H](O)[C@H](C)[C@@H](O)[C@H](OC4CCC(N(C)C)C(C)O4)[C@@H](O)[C@](C)(O)CCCCC/C=C/[C@@H]4CC(C)(C)O[C@@]4(O)C[C@H](O2)[C@H]3C)O1 (stereo not given in full),IC50,[23],> 0.013 µM (active)
same,AC50,[24],< 0.26 µM (active)
same,AC50,[25],20.1 µM (active)
same,IC50,[26],0.0061 µM (active)
COC(=O)C1=C(C)N(Cc2ccccc2C(F)(F)F)C(NCC2CC2)=NC1c1ccc(F)cc1 (stereo not given),IC50,[27],> 96.6 µM (inactive)
COC(=O)C1=C(C)N(Cc2ccccc2C(F)(F)F)C(NCc2ccc3c(c2)OCO3)=NC1c1ccc(C(F)(F)F)cc1 (stereo not given),IC50,[27],> 96.6 µM (inactive)
